Experiments:
NA-uptake = experiment: Measurement of noradrenalin re-uptake in rat brain synaptosomes (P2 fraction, hypothalamus); format: biochemical; settings: synaptosomes from hypothalamus of male rats' brains
Protocol: Measurement of Noradrenalin Re-Uptake
In order to carry out these in vitro studies, synaptosomes were freshly isolated from rat brain areas. In each case, what is known as a “P2” fraction, which was prepared in accordance with Gray and Whittaker's directions (E. G. Gray and V. P. Whittaker (1962) J. Anat. 76, 79-88), was used. For the NA-uptake, uptake these vesicular particles were isolated from the hypothalamus of male rats' brains.
A detailed description of the method can be found in the literature (M. Ch. Frink, H.-H. Hennies, W. Englberger, M. Haurand and B. Wilffert (1996) Atzneim.-Forsch./Drug Res. 46 (III), 11, 1029-1036).

5-HT-uptake = experiment: Measurement of serotonin re-uptake in rat brain synaptosomes (P2 fraction, medulla+pons region); format: biochemical; settings: synaptosomes from medulla+pons region of male rats' brains
Protocol: Measurement of Serotonin Re-Uptake
In order to carry out these in vitro studies, synaptosomes were freshly isolated from areas of rats' brains. In each case, what is known as a “P2” fraction, which was prepared in accordance with Gray and Whittaker's directions (E. G. Gray and V. P. Whittaker (1962) J. Anat. 76, 79-88), was used. For the 5HT-e, uptake these vesicular particles were isolated from the medulla+pons region of male rats' brains.
A detailed description of the method can be found in the literature (M. Ch. Frink, H.-H. Hennies, W. Englberger, M. Haurand and B. Wilffert (1996) Arzneim.-Forsch./Drug Res. 46 (III), 11, 1029-1036).

Structure (SMILES) | NA-uptake, 10 μM, % inhibition (NA-uptake) [%] | 5-HT-uptake, 10 μM, % inhibition (5-HT-uptake) [%]
Cc1onc(-c2ccccc2Cl)c1C(=O)NC1CCC(c2cccc(F)c2)(N(C)C)CC1.Cl (single isomer, unassigned) [Example 119, 3-(2-chlorophenyl)-5-methylisoxazole-4-carboxylic acid [4-dimethyl-amino-4-(3-fluorophenyl)cyclohexyl]amide hydrochloride, polar diastereoisomer] | 59 | 86
Cc1onc(-c2ccccc2Cl)c1C(=O)NC1CCC(c2cccc(F)c2)(N(C)C)CC1.Cl (single isomer, unassigned) [Example 118, 3-(2-chlorophenyl)-5-methylisoxazole-4-carboxylic acid [4-dimethyl-amino-4-(3-fluorophenyl)cyclohexyl]amide hydrochloride, non-polar diastereoisomer] |  | 50

— patent US8093272B2 (priority 2004, dated 2012)
